The values below are quoted from earlier work in patent US20240350385A1 (priority 2023, published 2024).

This series deals with patients. As to conditions: in vivo.

As for 2-Octyl cyanoacrylate, the “incidence of allergic contact dermatitis” value is given as 2.7%.

In the case of `C=C(C#N)C(=O)OCCCC` [n-Butyl cyanoacrylate], the “incidence of allergic contact dermatitis” value was 2.2%.
